The target in this assay is T1, AIK (Homo sapiens, UniProt O14965).
T1 sequence (O14965 1-403): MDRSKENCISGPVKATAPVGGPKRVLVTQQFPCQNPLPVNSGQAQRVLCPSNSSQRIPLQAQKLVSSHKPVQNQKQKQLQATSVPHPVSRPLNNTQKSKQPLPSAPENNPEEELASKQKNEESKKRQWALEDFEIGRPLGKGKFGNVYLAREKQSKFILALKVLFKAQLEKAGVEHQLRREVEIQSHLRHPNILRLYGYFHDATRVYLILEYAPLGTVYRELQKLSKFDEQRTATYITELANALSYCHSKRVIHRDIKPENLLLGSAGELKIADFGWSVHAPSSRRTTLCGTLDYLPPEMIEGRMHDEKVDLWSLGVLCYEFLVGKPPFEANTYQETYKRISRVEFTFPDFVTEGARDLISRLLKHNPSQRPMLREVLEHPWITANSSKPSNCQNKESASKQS
Kind of assay: Determination of inhibition of AIK by direct fluorescence polarization (IMAP). It is filed as biochemical. As to conditions: FP assay, 2.5 μM ATP, 2.5 nM AIK; read-out: IC50 of Exemplified Compounds Against AIK. On the procedure: The inhibitory properties of compounds relative to AIK may be determined by the Direct Fluorescence Polarization detection method (FP) using a Greiner small volume black 384-well-plate format under the following reaction conditions: 50 mM Hepes pH 7.3, 10 mM MgCl2, 10 mM NaCl, 1 mM DTT, 0.01% Brij35, 100 nM Fluorescein-LRRASLG peptide (provided by SYNPEP), 5% DMSO, 2.5 μM ATP. Detection of the reaction product is performed by addition of IMAP binding reagent (Molecular Devices). Reaction product may be determined quantitatively by FP using an Analyst HT plate reader (Molecular Devices) with an excitation wavelength at 485 nm and emission at 530 nm and using a Fluorescein 505 dichroic mirror.
The assay reaction may be initiated as follows: 2 ul of (3×) 300 nM Fl-Peptide/7.5 uM ATP was added to each well of the plate, followed by the addition of 2 ul of (3×) inhibitor (2.5 fold serial dilutions for 11 data points for each inhibitor) containing 15% DMSO. 2 ul of (3×) 7.5 nM AIK solution may be added to initiate the reaction (final enzyme concentration was 2.5 nM for AIK). The reaction mixture may then be incubated at room temperature for 45 min, and quenched and developed by addition of 20 ul of 1 to 400 diluted IMAP binding reagent in 1× proprietary IMAP binding buffer. Fluorescence polarization readings of the resulting reaction mixtures may be measured after a 60-minute incubation at room temperature.
IC50 values may be calculated by non-linear curve fitting of the compound concentrations and fluorescent polarization values to the standard IC50 equation.
In the case of `CCS(=O)(=O)c1cccc(-c2cnc(OCC3CCN(C)CC3)c3[nH]c4ncc(C)cc4c23)c1` [Compound 53, 5-(3-Ethanesulfonyl-phenyl)-3-methyl-8-(1-methyl-piperidin-4-ylmethoxy)-9H-dipyrido[2,3-b;4′,3′-d]pyrrole], the IC50 (as a rule, the concentration that gives 50% inhibition) is below 20 nM.

As for `CNS(=O)(=O)c1cccc(-c2ccc(C)c3[nH]c4ncc(C)cc4c23)c1` [Compound 15, 3-(3,8-dimethyl-9H-pyrido[2,3-b]indol-5-yl)-N-methylbenzenesulfonamide], the IC50 is below 20 nM. With `Cc1cnc2[nH]c3c(C)c(C(=O)NCCN(C)C)cc(Cl)c3c2c1` [Compound 120, 5-chloro-N-(2-(dimethylamino)ethyl)-3,8-dimethyl-9H-pyrido[2,3-b]indole-7-carboxamide] the figure was above 100 nM; with `CCS(=O)(=O)c1cccc(-c2ccc(OC)c3[nH]c4ncc(Cl)cc4c23)c1` [Compound 217], below 20 nM; with `CCS(=O)(=O)c1cccc(-c2cnc(C#N)c3[nH]c4ncc(C)cc4c23)c1` [Compound 48, 5-(3-Ethanesulfonyl-phenyl)-3-methyl-9H-dipyrido[2,3-b;4′,3′-d]pyrrole-8-carbonitrile], above 100 nM. Then `COc1ccc(-c2cccc(NC(C)=O)c2)c2c1[nH]c1ncc(C)cc12` [Compound 161, N-(3-(8-methoxy-3-methyl-9H-pyrido[2,3-b]indol-5-yl)phenyl)acetamide], with 50 to 100 nM; and `Cc1cnc(Nc2cc(Cl)ccc2OCC2CCN(C)CC2)c(Br)c1` [Compound 174, 3-bromo-N-(5-chloro-2-((1-methylpiperidin-4-yl)methoxy)phenyl)-5-methylpyridin-2-amine], with below 20 nM; and `Cc1cnc2[nH]c3c(C)c(C(=O)NCCN(C)C)cc(-c4cccc(NC(=O)C5CC5)c4)c3c2c1` [Compound 111, 5-(3-(cyclopropanecarboxamido)phenyl)-N-(2-(dimethylamino)ethyl)-3,8-dimethyl-9H-pyrido[2,3-b]indole-7-carboxamide], with 20 to 50 nM. On to `CCS(=O)(=O)c1cccc(-c2cc(F)c(OCCN(C)C)c3[nH]c4ncc(C)cc4c23)c1` [Compound 203, 2-(5-(3-(ethylsulfonyl)phenyl)-7-fluoro-3-methyl-9H-pyrido[2,3-b]indol-8-yloxy)-N,N-dimethylethanamine], for which the IC50 is below 20 nM.

For `CCS(=O)(=O)c1cccc(-c2ccc(OCC3CCN(C)CC3)c3[nH]c4ncc(Cl)cc4c23)c1` [Compound 199, 3-chloro-5-(3-(ethylsulfonyl)phenyl)-8-((1-methylpiperidin-4-yl)methoxy)-9H-pyrido[2,3-b]indole], the IC50 fell in the range of 20 to 50 nM. In the case of `COc1ccc(Cl)cc1Nc1ncc(C)cc1Br` [Compound 154, 3-bromo-N-(5-chloro-2-methoxyphenyl)-5-methylpyridin-amine], the IC50 is below 20 nM. As to `Cc1cnc2[nH]c3c(OCC4CCN(C)CC4)ccc(Cl)c3c2c1` [Compound 175, 5-chloro-3-methyl-8-((1-methylpiperidin-4-yl)methoxy)-9H-pyrido[2,3-b]indole], the IC50 fell in the range of 50 to 100 nM. Consider `CCS(=O)(=O)c1cccc(-c2ccc(C)c3[nH]c4ncccc4c23)c1` [Compound 17, 5-(3-(ethylsulfonyl)phenyl)-8-methyl-9H-pyrido[2,3-b]indole], for which the IC50 fell in the range of 20 to 50 nM. Consider `CCS(=O)(=O)c1cccc(-c2cc(C(=O)NCCN(C)C)c(C)c3[nH]c4ncc(C)cc4c23)c1` [Compound 87, N-(2-(dimethylamino)ethyl)-5-(3-(ethylsulfonyl)phenyl)-3,8-dimethyl-9H-pyrido[2,3-b]indole-7-carboxamide], for which the IC50 lay in the range of 20 to 50 nM. Then `CCS(=O)(=O)c1cccc(-c2cc(C(=O)NCCOCCO)c(C)c3[nH]c4ncc(C)cc4c23)c1` [Compound 110], with below 20 nM. Then `CCS(=O)(=O)c1cccc(-c2ccc(OCC3CCN(C)CC3)c(I)c2)c1` [Compound 197, 4-((3′-(ethylsulfonyl)-3-iodobiphenyl-4-yloxy)methyl)-1-methylpiperidine], with below 20 nM.

Turning to `CCS(=O)(=O)c1cccc(-c2cc(NC(=O)CCN(C)C)c(OC)c3[nH]c4ncc(C)cc4c23)c1` [Compound 240, 3-(dimethylamino)-N-(5-(3-(ethylsulfonyl)phenyl)-8-methoxy-3-methyl-9H-pyrido[2,3-b]indol-7-yl)propanamide], the IC50 was 20 to 50 nM. Then `CCS(=O)(=O)c1cccc(-c2cnc(NCCN(C)C)c3[nH]c4ncc(C)cc4c23)c1` [Compound 41, N′-[5-(3-Ethanesulfonyl-phenyl)-3-methyl-9H-dipyrido[2,3-b;4′,3′-d]pyrrol-8-yl]-N,N-dimethyl-ethane-1,2-diamine], with 50 to 100 nM; and `CCOc1ncc(-c2cccc(S(=O)(=O)CC)c2)c2c1[nH]c1ncc(C)cc12` [Compound 50, 5-(3-Ethanesulfonyl-phenyl)-8-ethoxy-3-methyl-9H-dipyrido[2,3-b;4′,3′-d]pyrrole], with below 20 nM.
